Test system: Streptococcus mutans
Test: Antibacterial activity against Streptococcus mutans ATCC 25175 after 16 to 20 hrs by NCCLS method
Assay type: functional

| Compound | Activity |
| --- | --- |
| CC(C)=CCc1c(O)c(CC=C(C)C)c2occ(-c3ccc(O)cc3)c(=O)c2c1O | 2 µg/mL |
| COc1cc2oc(=O)c3c4ccc(O)cc4oc3c2c(OC)c1CC=C(C)C | 500 µg/mL |
| COc1cc2occ(-c3ccc(O)cc3)c(=O)c2c(O)c1CC=C(C)C [GANCAONIN G] | 125 µg/mL |
| COc1c(CC=C(C)C)c(O)cc2c1-c1oc3cc(O)c(CC=C(C)C)cc3c1CO2 [GLYCYRRHIZOL A] | 1 µg/mL |
| COc1cc(O)cc2c1-c1oc3c4c(ccc3c1CO2)OC(C)(C)C=C4 [GLYCYRRHIZOL B] | 32 µg/mL |
| COc1c2c(cc3oc(=O)c4c5ccc(O)cc5oc4c13)OC(C)(C)CC2 [ISOGLYCYROL] | 500 µg/mL |

Reference: ChEMBL document CHEMBL1157231, “Antibacterial compounds from Glycyrrhiza uralensis” (2006)
